Test results: the supplement of paper PMC10307832

Legend:
Assay in all cases: relative viability (nuclei count vs DMSO), 5 days (fraction); higher = more cells survive
[1] = compound: CC1(COc2ccc3c(c2)ncn3-c2ccc3cccc(N4CCC(N)CC4)c3n2)COC1 [Crenolanib] + CC(=O)c1c(C)c2cnc(Nc3ccc(N4CCNCC4)cn3)nc2n(C2CCCC2)c1=O [Palbociclib] (partner 0.5 µM)
In short: (§1)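 Lung cancer cell lines, seeded in 1536-well plates, were treated the following day by pin tool with a single drug or with five library-drug doses (not always all listed) in √10 steps on top of a fixed anchor-drug dose. Cells were fixed and nuclei stained in one step after 5 days, and nuclei were counted. Relative viability is the nuclei count for treated wells divided by that for vehicle wells, reported as medians of duplicate plates.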

[2] = compound: O=C1NC(=O)[C@@H](c2cn3c4c(cccc24)CCC3)[C@@H]1c1c[nH]c2ccccc12 [Tivantinib] + CC(=O)c1c(C)c2cnc(Nc3ccc(N4CCNCC4)cn3)nc2n(C2CCCC2)c1=O [Palbociclib] (partner 0.5 µM)
In short: as §1

[3] = compound: CC1(COc2ccc3c(c2)ncn3-c2ccc3cccc(N4CCC(N)CC4)c3n2)COC1 [Crenolanib] + NC(=O)Nc1cc(-c2cccc(F)c2)sc1C(=O)N[C@H]1CCCNC1 [AZD7762] (partner 0.2 µM)
In short: as §1

[4] = compound: CC1(COc2ccc3c(c2)ncn3-c2ccc3cccc(N4CCC(N)CC4)c3n2)COC1 [Crenolanib] + CCNC(=O)c1noc(-c2cc(C(C)C)c(O)cc2O)c1-c1ccc(CN2CCOCC2)cc1 [Luminespib] (partner 0.01 µM)
In short: as §1

Row | Cell Line | relative viability ([1]; first compound 0.01 µM) | relative viability ([1]; first compound 0.03162 µM) | relative viability ([1]; first compound 0.1 µM) | relative viability ([1]; first compound 0.3162 µM) | relative viability ([1]; first compound 1 µM) | relative viability ([2]; first compound 0.01 µM) | relative viability ([2]; first compound 0.03162 µM) | relative viability ([2]; first compound 0.1 µM) | relative viability ([2]; first compound 0.3162 µM) | relative viability ([3]; first compound 0.01 µM) | relative viability ([3]; first compound 0.03162 µM) | relative viability ([3]; first compound 0.1 µM) | relative viability ([3]; first compound 0.3162 µM) | relative viability ([3]; first compound 1 µM) | relative viability ([4]; first compound 0.01 µM) | relative viability ([4]; first compound 0.03162 µM) | relative viability ([4]; first compound 0.1 µM) | relative viability ([4]; first compound 0.3162 µM) | relative viability ([4]; first compound 1 µM)
1 | LXF-289 | 0.628 | 0.595 | 0.62 | 0.648 | 0.618 | 0.563 | 0.563 | 0.545 | 0.584 | 1.03 | 1.13 | 1.09 | 1.11 | 1.05 | 0.657 | 0.772 | 0.617 | 0.722 | 0.711
2 | NCI-H1437 | 0.33 | 0.322 | 0.301 | 0.293 | 0.332 | 0.311 | 0.28 | 0.335 | 0.289 | 1.15 | 1.18 | 1.07 | 1.19 | 1.14 | 1.18 | 1.17 | 1.1 | 1.21 | 0.911
3 | HCC-827 | 0.453 | 0.484 | 0.503 | 0.482 | 0.507 | 0.458 | 0.531 | 0.487 | – | 0.276 | 0.212 | 0.2 | 0.189 | 0.218 | 0.7 | 0.607 | 0.617 | 0.568 | 0.6
4 | NCI-H1650 | 0.397 | 0.281 | 0.324 | 0.308 | 0.387 | 0.325 | 0.322 | 0.426 | 0.254 | – | – | – | – | – | 0.193 | 0.231 | 0.203 | 0.213 | 0.178
5 | HCC-366 | 0.458 | 0.381 | 0.416 | 0.46 | 0.434 | 0.434 | 0.362 | 0.399 | 0.337 | 0.689 | 0.327 | 0.333 | 0.363 | 0.474 | – | – | – | – | –
6 | EKVX | 0.447 | 0.338 | 0.39 | 0.393 | 0.322 | 0.408 | 0.446 | 0.381 | 0.174 | 0.733 | 0.779 | 0.731 | 0.841 | 0.761 | 0.915 | 0.952 | 0.909 | 1.03 | 0.93
7 | NCI-H2126 | 0.343 | 0.352 | 0.335 | 0.352 | 0.372 | 0.366 | 0.323 | 0.342 | 0.397 | 1.07 | 1.05 | 0.927 | 1.05 | 0.973 | 0.922 | 0.958 | 0.869 | 0.857 | 0.588
8 | LK-2 | 0.667 | 0.532 | 0.88 | 0.734 | 1.06 | 0.643 | 0.472 | 0.69 | 0.369 | 0.483 | 0.46 | 0.423 | 0.499 | 0.453 | 0.169 | 0.18 | 0.16 | 0.17 | 0.199
9 | NCI-H1563 | – | – | – | – | – | – | – | – | – | – | – | – | – | – | 0.552 | 0.499 | 0.531 | 0.517 | 0.478
10 | COR-L23 | 0.245 | 0.319 | 0.299 | 0.306 | 0.266 | 0.343 | 0.304 | 0.268 | 0.325 | – | – | – | – | – | 0.709 | 0.679 | 0.63 | 0.848 | 0.574
